Data as given in US6517871B1, “Bioenhanced formulations comprising eprosartan in oral solid dosage form” (SmithKline Beecham Corporation, priority 1998, dated 2003).
Counter-ions that a name gives are not always drawn.

Columns and labels:
clinical = conditions: human, in vivo
Excerpt: Eprosartan is an amphiphilic molecule containing two acidic (allylic carboxylic acid and phenylic carboxylic acid) and one basic (imidazole) functional groups. At lower pH (below 2) the imidazole nitrogen will be protonated (form ii). As the pH increases, the allylic carboxylic group will be deprotonated (form iii). […] As the pH increases further, the phenylic carboxylic group will be depronated (form iv) followed by the deprotonation of the protonated imidazole group (form v). […] According to the pH-partitioning theory of absorption, only the unionized species (form ii) or the ion-neutral species (form iii) will be absorbed by passive diffusion. […] The time to maximum concentration is between 1 to 2.5 hours in fasted state and 2.5-4 hours in fed state. […] Additionally, since the commercial form of the drug is as its mesylate, which becomes dihydrated during the formulation process, high dose tablets (e.g., 600 mg tablets weigh 1,200.0 mg) may be difficult to swallow.

[1] = pH-solubility profiles (FIG. 2); type: physicochemical; conditions: pH >4.0 to 5.5, where the enteric coat starts to release

bioavailability (clinical)	mean absolute bioavailability (clinical)	time to maximum concentration (clinical)	drug solubility at initiation pHs [1]	SMILES
~13%	–	–	–	CCCCc1ncc(/C=C(\Cc2cccs2)C(=O)O)n1Cc1ccc(C(=O)O)cc1 [eprosartan mesylate, (E)-α-[2-n-Butyl-1-[(4-carboxyphenyl)methyl]-1H-imidazol-5-yl]methylene-2-thiophenepropionic acid monomethanesulfonate]
–	approximately 13%	1 to 2.5 h	negligible	CCCCc1ncc(/C=C(\Cc2cccs2)C(=O)O)n1Cc1ccc(C(=O)O)cc1 [eprosartan, (E)-α-[2-n-butyl-1-[(4-carboxyphenyl)methyl]-1H-imidazol-5-yl]methylene-2-thiophenepropionic acid]
